Key:
[1] = Cytotoxicity against MDCK cells assessed as cell death after 2 days by MTT assay; format: toxicity, cell-based, Canis lupus familiaris; conditions: dog
[2] = Selectivity index, ratio of CC50 for MDCK cells to IC50 for Influenza A virus H5 subtype (A/Thailand/Kan353/2004(H5N1)) pseudovirus infected in MDCK cells co-infected with HA/HIV; format: functional
cells = conditions: Influenza A virus, MDCK
[3] = (§1) Binding affinity to Influenza A virus A/Vietnam/1194/2004(H5N1) Hemagglutinin by surface plasmon resonance analysis
[4] = system: Influenza A virus (A/Vietnam/1194/2004(H5N1)); assay: as §1
[5] = (§2) Binding affinity to influenza A virus A/Vietnam/1194/2004(H5N1) Hemagglutinin 2 subunit by surface plasmon resonance analysis
[6] = system: Influenza A virus (A/Vietnam/1194/2004(H5N1)); assay: as §2

Structure (SMILES)	CC50 at 48 h [1]	Ratio CC50/IC50 [2]	IC50 (cells)	Kd [3]	Activity [4]	Kd [5]	Activity [6]
COC(=O)[C@@]1(C)CC[C@]2(C)CC[C@]3(C)C(=CC(=O)[C@@H]4[C@@]5(C)CC[C@H](O[C@@H]6O[C@H](CO)[C@@H](O[C@@H]7O[C@@H](C)[C@H](O)[C@@H](O)[C@H]7O)[C@H](O)[C@H]6O[C@@H]6O[C@@H](C)[C@H](O)[C@@H](O)[C@H]6O)C(C)(C)[C@@H]5CC[C@]43C)[C@@H]2C1	33.8 µM	8.3	4.1 µM	–	–	–	–
C[C@@H]1O[C@@H](O[C@H]2[C@H](O[C@H]3CC[C@]4(C)[C@H]5CC=C6[C@@H]7CC(C)(C)CC[C@]7(C(=O)O)CC[C@@]6(C)[C@]5(C)CC[C@H]4C3(C)C)O[C@H](CO)[C@@H](O[C@@H]3O[C@@H](C)[C@H](O)[C@@H](O)[C@H]3O)[C@@H]2O)[C@H](O)[C@H](O)[C@H]1O	18.7 µM	2	9.39 µM	–	–	–	–
C[C@@H]1O[C@@H](O[C@H]2[C@H](O[C@H]3CC[C@]4(C)[C@H]5CC=C6[C@@H]7CC(C)(C)CC[C@]7(C(=O)OCc7ccccc7)CC[C@@]6(C)[C@]5(C)CC[C@H]4C3(C)C)O[C@H](CO)[C@@H](O[C@@H]3O[C@@H](C)[C@H](O)[C@@H](O)[C@H]3O)[C@@H]2O)[C@H](O)[C@H](O)[C@H]1O	75.4 µM	13.4	5.62 µM	–	–	–	–
CCN(CC)C(=O)[C@]12CCC(C)(C)C[C@H]1C1=CC[C@@H]3[C@@]4(C)CC[C@H](O[C@@H]5O[C@H](CO)[C@@H](O[C@@H]6O[C@@H](C)[C@H](O)[C@@H](O)[C@H]6O)[C@H](O)[C@H]5O[C@@H]5O[C@@H](C)[C@H](O)[C@@H](O)[C@H]5O)C(C)(C)[C@@H]4CC[C@@]3(C)[C@]1(C)CC2	69 µM	27.8	2.48 µM	–	–	–	–
C[C@@H]1CC[C@@]2(OC1)O[C@H]1C[C@H]3[C@@H]4C[C@H](O)[C@H]5C[C@@H](O[C@@H]6O[C@H](CO)[C@@H](O[C@@H]7O[C@@H](C)[C@H](O)[C@@H](O)[C@H]7O)[C@H](O)[C@H]6O[C@@H]6O[C@@H](C)[C@H](O)[C@@H](O)[C@H]6O)CC[C@]5(C)[C@H]4CC[C@]3(C)[C@H]1[C@@H]2C	18.3 µM	2.3	7.92 µM	–	–	–	–
COC(=O)[C@]12CCC(C)(C)C[C@H]1C1=CC[C@@H]3[C@@]4(C)CC[C@@H](O[C@@H]5O[C@H](CO)[C@@H](O[C@@H]6O[C@@H](C)[C@H](O)[C@@H](O)[C@H]6O)[C@H](O)[C@H]5O[C@@H]5O[C@@H](C)[C@H](O)[C@@H](O)[C@H]5O)C(C)(C)[C@@H]4CC[C@@]3(C)[C@]1(C)CC2	> 200 µM	>38	5.26 µM	–	–	–	–
CC1(C)CC[C@]2(C(=O)O)CC[C@]3(C)C(=CC[C@@H]4[C@@]5(C)CC[C@H](O)C(C)(C)[C@@H]5CC[C@]43C)[C@@H]2C1 [OLEANOLIC_ACID]	23.1 µM	<1	> 50 µM	–	–	–	–
C[C@@H]1O[C@@H](O[C@H]2[C@H](O[C@H]3CC[C@]4(C)[C@H]5CC=C6[C@@H]7CC(C)(C)CC[C@]7(C(=O)OC7CCCC7)CC[C@@]6(C)[C@]5(C)CC[C@H]4C3(C)C)O[C@H](CO)[C@@H](O[C@@H]3O[C@@H](C)[C@H](O)[C@@H](O)[C@H]3O)[C@@H]2O)[C@H](O)[C@H](O)[C@H]1O	58.2 µM	12.1	4.8 µM	–	–	–	–
O=C(NCCN1CCCCC1)c1cc(F)cc(C(F)(F)F)c1	–	332.3	–	–	–	–	–
C[C@@H]1O[C@@H](O[C@H]2[C@H](O[C@H]3CC[C@]4(C)[C@H]5CC=C6[C@@H]7CC(C)(C)CC[C@]7(C=O)CC[C@@]6(C)[C@]5(C)CC[C@H]4C3(C)C)O[C@H](CO)[C@@H](O[C@@H]3O[C@@H](C)[C@H](O)[C@@H](O)[C@H]3O)[C@@H]2O)[C@H](O)[C@H](O)[C@H]1O	21.1 µM	2.5	8.58 µM	–	–	–	–
CCOC(=O)[C@]12CCC(C)(C)C[C@H]1C1=CC[C@@H]3[C@@]4(C)CC[C@H](O[C@@H]5O[C@H](CO)[C@@H](O[C@@H]6O[C@@H](C)[C@H](O)[C@@H](O)[C@H]6O)[C@H](O)[C@H]5O[C@@H]5O[C@@H](C)[C@H](O)[C@@H](O)[C@H]5O)C(C)(C)[C@@H]4CC[C@@]3(C)[C@]1(C)CC2	37.4 µM	7.2	5.2 µM	–	–	–	–
COC(=O)[C@]12CCC(C)(C)C[C@H]1C1=CC(=O)[C@@H]3[C@@]4(C)CC[C@H](O[C@@H]5O[C@H](CO)[C@@H](O[C@@H]6O[C@@H](C)[C@H](O)[C@@H](O)[C@H]6O)[C@H](O)[C@H]5O[C@@H]5O[C@@H](C)[C@H](O)[C@@H](O)[C@H]5O)C(C)(C)[C@@H]4CC[C@@]3(C)[C@]1(C)CC2	17.9 µM	3.1	5.8 µM	–	–	–	–
C[C@@H]1O[C@@H](O[C@H]2[C@H](O[C@H]3CC[C@]4(C)[C@H]5CC=C6[C@@H]7CC(C)(C)CC[C@]7(C(=O)N(C)C)CC[C@@]6(C)[C@]5(C)CC[C@H]4C3(C)C)O[C@H](CO)[C@@H](O[C@@H]3O[C@@H](C)[C@H](O)[C@@H](O)[C@H]3O)[C@@H]2O)[C@H](O)[C@H](O)[C@H]1O	70 µM	29.7	2.36 µM	0.00446 µM	Dose-dependent effect	0.0112 µM	Dose-dependent effect
COC[C@]12CCC(C)(C)C[C@H]1C1=CC[C@@H]3[C@@]4(C)CC[C@H](O[C@@H]5O[C@H](CO)[C@@H](O[C@@H]6O[C@@H](C)[C@H](O)[C@@H](O)[C@H]6O)[C@H](O)[C@H]5O[C@@H]5O[C@@H](C)[C@H](O)[C@@H](O)[C@H]5O)C(C)(C)[C@@H]4CC[C@@]3(C)[C@]1(C)CC2	16.8 µM	<1	> 20 µM	–	–	–	–
COC(=O)[C@]12CCC(C)(C)C[C@H]1C1=CC[C@@H]3[C@@]4(C)CC[C@H](O[C@@H]5O[C@H](CO)[C@@H](O[C@@H]6O[C@@H](C)[C@H](O)[C@@H](O)[C@H]6O)[C@H](O)[C@H]5O[C@@H]5O[C@@H](C)[C@H](O)[C@@H](O)[C@H]5O)C(C)(C)[C@@H]4CC[C@@]3(C)[C@]1(C)CC2	–	3.6	4.74 µM	–	–	–	–
CCCCCOC(=O)[C@]12CCC(C)(C)C[C@H]1C1=CC[C@@H]3[C@@]4(C)CC[C@H](O[C@@H]5O[C@H](CO)[C@@H](O[C@@H]6O[C@@H](C)[C@H](O)[C@@H](O)[C@H]6O)[C@H](O)[C@H]5O[C@@H]5O[C@@H](C)[C@H](O)[C@@H](O)[C@H]5O)C(C)(C)[C@@H]4CC[C@@]3(C)[C@]1(C)CC2	45.2 µM	6.9	6.52 µM	–	–	–	–

From ChEMBL document CHEMBL3856183, “Structure-activity relationships of 3-O-β-chacotriosyl oleanane-type triterpenoids as potential H5N1 entry inhibitors” (Eur J Med Chem, 2016)
